Reference: patent US20110021483A1, “Platinum (IV) Complexes” (PLATCO TECHNOLOGIES (PROPRIETARY) LIMITED, priority 2007, published 2011)

Columns and labels:
[1] = test system: HT29 cancer cells; experiment: Anticancer activity, IC50 from dose response curves, HT29 cells; format: cell-based; conditions: concentrations 100, 50, 25, 10, 5 and 1 μM
Experimental: (§1) All Dose response curves were prepared for each of the chosen complexes, as well as positive controls, in order to obtain IC50 values. The concentrations used were 100, 50, 25, 10, 5 and 1 μM. IC50 values were calculated from the log-dose response curves using GraphPad Prism 4.

[2] = test system: Hela cancer cells; experiment: Anticancer activity, IC50 from dose response curves, HeLa cells; format: cell-based; conditions: concentrations 100, 50, 25, 10, 5 and 1 μM
Experimental: as §1

[3] = test system: MCF7 cancer cells; experiment: Anticancer activity, IC50 from dose response curves, MCF7 cells; format: cell-based; conditions: concentrations 100, 50, 25, 10, 5 and 1 μM
Experimental: as §1

[4] = test system: HeLa cells; experiment: Percent inhibition of HeLa cells at single concentration, 48 h; format: cell-based
Experimental: The anticancer activity of cis-diammineoxalatochloronitroplatinum(IV) (complex I-A) has been compared to cisplatin against two cell lines for 48 h at 77 uM.

[5] = test system: MCF7 cells; experiment: Percent inhibition of MCF7 cells at single concentration, 48 h; format: cell-based
[6] = physchem; conditions: water
[7] = Stability: reduction by cysteine followed by positive ion mass spectra; format: physicochemical; conditions: water/37° C./18 h, presence of cysteine
Source text: This observation implies that certain platinum(IV) complexes described herein are capable of converting to their corresponding platinum(II) complexes.

[8] = Thermal stability of the solid complex; format: physicochemical

SMILES	IC50 [1] [µM]	IC50 [2] [µM]	IC50 [3] [µM]	Percent inhibition of HeLa cells ([4]; 48 h at 50 uM) [%]	Percent inhibition of HeLa cells ([4]; 48 h at 77 uM) [%]	Percent inhibition of MCF7 cells ([5]; 48 h at 50 uM) [%]	Percent inhibition of MCF7 cells ([5]; 48 h at 77 uM) [%]	solubility [6] [µg/mL]	Reduction to platinum(II) complex upon addition of cysteine [7]	Solid complex stable up to (temperature) [8]
O=C1[O][Pt-2]2([NH2+]C3CCCC[C@H]3[NH2+]2)[O]C1=O (stereo in doubt) [Oxaliplatin, (trans-l-1,2-diaminocyclohexane)oxalatoplatinum(II)]	12.3	11.9	6.21							
N.N.[Cl][Pt][Cl] [Cisplatin, cisplatin]	8.11	10.7	14.1	86	87	72	76			
[NH2][Pt]1([NH2])([Cl])([N+](=O)[O-])[O]C(=O)C(=O)[O]1 [I-A, cis-diammineoxalatochloronitroplatinum(IV)]								2400		
NC1CCCCC1N.O=C([O-])C(=O)[O-].O=N[O-].[Cl-].[Pt+4] (stereo not drawn) [II-A, (trans-l-1,2-diaminocyclohexane)oxalatochloronitro-platinum(IV)]	3.07	4.81	5.86						oxaliplatin is formed	up to 210 °C
